Laboratory results from article PMC8398451, “Molecular Engineering of Curcumin, an Active Constituent of Curcuma longa L. (Turmeric) of the Family Zingiberaceae with Improved Antiproliferative Activity” (Plants, 2021).

How the values were obtained:
Format in all cases: cell-based, Human
[1] = tested on: DU-145; assay: NCI antiproliferative SRB assay, Prostate Cancer panel
[2] = tested on: HT29; assay: NCI antiproliferative SRB assay, Colon Cancer panel
[3] = tested on: MALME-3M; assay: NCI antiproliferative SRB assay, Melanoma panel
[4] = tested on: MDA-MB-468; assay: NCI antiproliferative SRB assay, Breast Cancer panel
Protocol: The antiproliferative activity of tested compounds was done against five dozen (60) cancer cell lines derived from nine different panels. All of the compounds were evaluated for antiproliferative activity in a single dose at 10 µM. Growth percent (GP) and percent growth inhibition (% GI) were used to calculate antiproliferative activity. […] The antiproliferative results of five-dose assay were calculated as three dose related parameters like, 50% growth inhibition (GI50), 50% lethal concentration (LC50), and total growth inhibition TGI [43, 44, 45, 46, 47].
Human tumor cell lines were grown in RPMI 1640 medium containing 5% fetal bovine serum and 2 mM L-glutamine. For a typical screening experiment, cells were inoculated into 96-well microtiter plates in 100 µL at plating densities ranging from 5000 to 40,000 cells/well, depending on the doubling time of individual cell lines. Two plates of each cell line were fixed in situ with trichloroacetic acid (TCA) after 24 h to represent a cell population measurement for each cell line at the time of drug addition (Ti). The experimental drugs were frozen after being solubilized in dimethyl sulfoxide at 400-fold the desired final maximum test concentration. An aliquot of frozen concentrate was thawed and diluted to twice the desired final maximum test concentration with medium containing 50 µg/mL gentamicin at the time of drug addition. Additional four, 10-fold, or ½ log serial dilutions serial dilutions were performed to provide a total of five drug concentrations plus the control. Aliquots of 100 µL of these different drug dilutions were added to the appropriate microtiter wells already containing 100 µL of medium, resulting in the required final drug concentrations. Following drug addition, the plates are incubated for an additional 48 h at 37 °C, 5% CO2, 95% air, and 100% relative humidity. For adherent cells, the assay is terminated by the addition of cold TCA. Cells are fixed in situ by the gentle addition of 50 µL of cold 50% (w/v) TCA (final concentration, 10% TCA) and incubated for 60 min at 4 °C. The supernatant is discarded, and the plates are washed five times with tap water and air dried. Sulforhodamine B (SRB) solution (100 µL) at 0.4% (w/v) in 1% acetic acid was added to each well, and plates were incubated for 10 min at room temperature. After staining, unbound dye was removed by washing five times with 1% acetic acid and the plates were air dried. Bound stain was subsequently solubilized with 10 mM trizma base, and the absorbance was read on an automated plate reader at a wavelength of 515 nm. For suspension cells, the methodology was the same except that the assay was terminated by fixing settled cells at the bottom of the wells by gently adding 50 µL of 80% TCA (final concentration, 16% TCA). […]
Antiproliferative activity
The anticancer screening was carried ou t as per the NCI US protocol. Using the seven absorbance measurements (time zero, (Ti), control growth, (C), and test growth in the presence of drug at the five concentration levels (Tf)), the percentage growth was calculated at each of the drug concentrations level as [( Tf−Ti × 100 for concentrations for which Tf ≥ Ti, and Tf−Ti × 100 for […]
concentrations for which Tf < Ti.
Three-dose response parameters (GI50, TGI, and LC50) were calculated for each of the experimental agents. Growth inhibition of 50% (GI50) was calculated from 100 × Tf−Ti = 50, , which was […]
the drug concentration resulting in a 50% reduction in the net protein increase (as measured by sulforhodamine B, SRB staining) in control cells during the drug incubation. The total growth inhibition (TGI) was calculated from Tf = Ti, which was the drug concentration resulting in total growth inhibition and signified the cytostatic effect. The LC50 was calculated from 100 × Tf−Ti = −50, , indicating a net loss […]
of cells following treatment which indicated the concentration of drug resulting in a 50% reduction in the […]

[5] = tested on: ACHN; assay: NCI antiproliferative SRB assay, Renal Cancer panel
[6] = tested on: SNB-75; assay: NCI antiproliferative SRB assay, CNS Cancer panel
[7] = tested on: Non-Small Cell Lung Cancer cell line panel; assay: NCI antiproliferative assay, panel summary
[8] = tested on: T-47D; assay: NCI antiproliferative SRB assay, Breast Cancer panel
[9] = tested on: OVCAR-4; assay: NCI antiproliferative SRB assay, Ovarian Cancer panel
[10] = tested on: IGROV1; assay: as above
[11] = tested on: NCI-H522; assay: NCI antiproliferative SRB assay, Non-Small Cell Lung Cancer panel
[12] = tested on: A498; assay: NCI antiproliferative SRB assay, Renal Cancer panel
[13] = tested on: Renal Cancer cell line panel; assay: NCI antiproliferative assay, panel summary; details: Renal Cancer panel
[14] = tested on: SK-OV-3; assay: NCI antiproliferative SRB assay, Ovarian Cancer panel
[15] = tested on: NCI/ADR-RES; assay: as above
[16] = Homo sapiens, 5-dose 0.01-100 µM
[17] = Homo sapiens, 5-dose 0.01-100 µM, read-out: LC50 (the source's name)
[18] = Homo sapiens, 5-dose assay, read-out: Sub Panel MID b (mean GI50 of panel)
[19] = Homo sapiens, T47D, 5-dose 0.01-100 µM

## COc1ccc(NC(=O)n2nc(/C=C/c3ccc(O)c(OC)c3)cc2/C=C/c2ccc(O)c(OC)c2)cc1 [3b]
[1]; 5-dose 0.01-100 µM
  TGI: 24.6 µM
[1]; [16]
  GI50: 3.99 µM
[1]; [17]
  CC50: > 100 µM
[1]; one dose 10 µM
  %GI: 72.77%
  GP (growth percent): 27.23
[2]; 5-dose 0.01-100 µM
  TGI: 11.0 µM
[2]; Homo sapiens, HT-29, 5-dose 0.01-100 µM
  GI50: 3.52 µM
[2]; Homo sapiens, HT-29, 5-dose 0.01-100 µM, read-out: LC50 (the source's name)
  CC50: > 100 µM
[2]; one dose 10 µM
  %GI: 68.74%
  GP (growth percent): 31.26
[3]; 5-dose 0.01-100 µM
  TGI: 38.6 µM
[3]; [16]
  GI50: 3.66 µM
[3]; [17]
  CC50: > 100 µM
[3]; one dose 10 µM
  %GI: 48.14%
  GP (growth percent): 51.86
[4]; Homo sapiens, MDA-MB-468, read-out: LC50
  LC50 (50% lethal concentration): > 100 µM
[4]; Homo sapiens, MDA-MB-468, 5-dose 0.01-100 µM
  GI50: 3.55 µM
[4]; MDA-MB-468, 5-dose 0.01-100 µM
  TGI: 21.6 µM
[4]; MDA-MB-468, one dose 10 µM
  %GI: 65.32%
  GP (growth percent): 34.68
[5]; 5-dose 0.01-100 µM
  TGI: >100 µM
[5]; [16]
  GI50: 4.18 µM
[5]; [17]
  CC50: > 100 µM
[5]; one dose 10 µM
  %GI: 77.93%
  GP (growth percent): 26.03
[6]; 5-dose 0.01-100 µM
  TGI: 16.3 µM
[6]; [16]
  GI50: 2.35 µM
[6]; [17]
  CC50: > 100 µM
[6]; one dose 10 µM
  %GI: 67.39%
  GP (growth percent): 32.61
[7]; 10 µM
  Mean % GI: 56.51%
[7]; 5-dose assay
  Selectivity Ratio (MID a:MID b): 0.92
[7]; [18]
  GI50: 5.32 µM
[8]; 5-dose 0.01-100 µM
  TGI: 25.8 µM
[8]; [19]
  GI50: 3.68 µM
  LC50 (lethal concentration, 50% cell kill): > 100 µM
[8]; one dose 10 µM
  %GI: 65.17%
  GP (growth percent): 34.83
[9]; 5-dose 0.01-100 µM
  TGI: 90.7 µM
[9]; [16]
  GI50: 5.72 µM
[9]; [17]
  CC50: > 100 µM
[9]; one dose 10 µM
  %GI: 48.49%
  GP (growth percent): 51.51
[10]; 5-dose 0.01-100 µM
  TGI: 57.0 µM
[10]; Homo sapiens, IGROV-1, 5-dose 0.01-100 µM
  GI50: 4.49 µM
[10]; Homo sapiens, IGROV-1, 5-dose 0.01-100 µM, read-out: LC50 (the source's name)
  CC50: > 100 µM
[10]; one dose 10 µM
  %GI: 65.61%
  GP (growth percent): 34.39
[11]; 5-dose 0.01-100 µM
  TGI: 12.7 µM
[11]; [16]
  GI50: 1.76 µM
[11]; [17]
  CC50: > 100 µM
[11]; one dose 10 µM
  %GI: 113.52%
  GP (growth percent): −13.52
[12]; 5-dose 0.01-100 µM
  TGI: 56.4 µM
[12]; [16]
  GI50: 17.2 µM
[12]; [17]
  CC50: > 100 µM
[12]; one dose 10 µM
  %GI: 17.53%
  GP (growth percent): 82.47
[13]; [18]
  GI50: 5.84 µM
[13]; 10 µM
  Mean % GI: 60.54%
[13]; 5-dose assay
  Selectivity Ratio (MID a:MID b): 0.84
[14]; 5-dose 0.01-100 µM
  TGI: 27.5 µM
[14]; [16]
  GI50: 3.66 µM
[14]; [17]
  CC50: > 100 µM
[14]; one dose 10 µM
  %GI: 39.26%
  GP (growth percent): 60.74
[15]; 5-dose 0.01-100 µM
  TGI: >100 µM
[15]; [16]
  GI50: 4.28 µM
[15]; [17]
  CC50: > 100 µM
[15]; one dose 10 µM
  %GI: 76.11%
  GP (growth percent): 23.89
